These results are taken from paper PMC4185360 (Emerging Microbes & Infections, 2014).

Where “and” joins values, the source holds several entries; their conditions need not be identical. Identical values can stand only once. Counter-ions that a name gives are not always drawn. Like-named read-outs stand apart in the source and are kept apart here.

The subject of data set [1] is EV71. Briefly: Antiviral potency assay, viral load by qRT-PCR in RD cells. It is filed as cell-based. The following applies: for IC90: read-out: IC90, EV71 replication (viral load by qRT-PCR).
In another data set the test system is coxsackievirus A16. The class given is cell-based, Coxsackie virus A16 (strain shzh05-1). The following applies: 50 µM.
The next data set deals with poliovirus-1 (Sabin). It is filed as cell-based. The following applies: TCID50 reduction assay.
Data set [2] concerns EV71. Briefly: Time-of-addition assay, single round viral replication in RD cells. As to conditions: 10 µM. It is filed as cell-based. As to the method: Single round viral replication is get by infecting RD cell at multiplicity of infection of 5, collecting at 16 h post infection, and testing culture supernatant and intracellular RNA at 16 h post infection.
(A) Time of addition assay. The viral load in supernatant represents the means±s.e.m. of results of experiment with three replicates, and the intracellular viral load represents the result of a single test. […] Data represents the means±s.e.m. of results of experiment with three replications.

Data set [3] deals with EV71. Briefly: Viral attachment assay (cell-virus adsorption at 4°C). It is filed as cell-based. The following applies: Enterovirus A, incubated with cells and virus at 4°C, read-out: IC90, virus binding to the cell.
For the next data set, the system named is EV71 particles. The data set is described as follows: STD NMR assay of binding to EV71 particles. The following applies: inactivated, purified EV71; molar ratio 1:100.
The conditions of data set [4]: cited from earlier work.
For data set [5] the following is noted: source not given; cited from earlier work.
A further data set deals with T1, CYP1A2 (Homo sapiens, UniProt P05177).
T1 sequence (P05177 1-516): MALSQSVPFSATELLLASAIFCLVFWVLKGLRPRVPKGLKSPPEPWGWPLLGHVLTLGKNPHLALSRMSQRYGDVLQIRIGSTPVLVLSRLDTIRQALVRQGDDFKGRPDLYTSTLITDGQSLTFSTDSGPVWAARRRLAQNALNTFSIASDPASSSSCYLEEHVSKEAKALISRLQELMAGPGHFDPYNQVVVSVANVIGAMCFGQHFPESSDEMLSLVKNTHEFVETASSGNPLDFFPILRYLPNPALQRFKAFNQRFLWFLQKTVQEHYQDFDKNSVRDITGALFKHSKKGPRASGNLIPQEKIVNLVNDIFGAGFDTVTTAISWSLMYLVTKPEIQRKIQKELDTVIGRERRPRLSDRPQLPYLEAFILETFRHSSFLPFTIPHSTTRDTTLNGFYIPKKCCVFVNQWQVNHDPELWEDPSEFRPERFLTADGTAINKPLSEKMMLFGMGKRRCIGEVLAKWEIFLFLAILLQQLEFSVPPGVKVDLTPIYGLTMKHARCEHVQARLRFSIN
The data set is described as follows: in vitro. As to conditions: microsomes.

For data set [6], the target named is T2, CYP2C9 (Homo sapiens, UniProt P11712). The data set is described as follows: in vitro. The following applies: microsomes.
T2 sequence (P11712 whole entry): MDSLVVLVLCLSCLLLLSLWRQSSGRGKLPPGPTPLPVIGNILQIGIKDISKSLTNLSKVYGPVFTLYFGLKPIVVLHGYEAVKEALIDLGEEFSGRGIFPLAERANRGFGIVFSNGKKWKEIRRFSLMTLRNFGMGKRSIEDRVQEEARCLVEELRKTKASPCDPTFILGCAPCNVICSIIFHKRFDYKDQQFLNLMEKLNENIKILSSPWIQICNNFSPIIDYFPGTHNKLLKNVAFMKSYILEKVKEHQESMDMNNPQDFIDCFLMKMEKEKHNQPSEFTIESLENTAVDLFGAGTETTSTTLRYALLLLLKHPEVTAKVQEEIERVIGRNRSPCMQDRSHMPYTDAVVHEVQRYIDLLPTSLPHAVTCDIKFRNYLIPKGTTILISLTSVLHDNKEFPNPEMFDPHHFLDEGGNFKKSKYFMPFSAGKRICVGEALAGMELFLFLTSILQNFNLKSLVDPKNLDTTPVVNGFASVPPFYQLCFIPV
The target of data set [7] is T3, CYP2D6 (Homo sapiens, UniProt P10635). The data set is described as follows: in vitro. As to conditions: human microsomes, probe marker substrate cocktail, O-demethylation (CYP2D6).
T3 sequence (P10635 whole entry): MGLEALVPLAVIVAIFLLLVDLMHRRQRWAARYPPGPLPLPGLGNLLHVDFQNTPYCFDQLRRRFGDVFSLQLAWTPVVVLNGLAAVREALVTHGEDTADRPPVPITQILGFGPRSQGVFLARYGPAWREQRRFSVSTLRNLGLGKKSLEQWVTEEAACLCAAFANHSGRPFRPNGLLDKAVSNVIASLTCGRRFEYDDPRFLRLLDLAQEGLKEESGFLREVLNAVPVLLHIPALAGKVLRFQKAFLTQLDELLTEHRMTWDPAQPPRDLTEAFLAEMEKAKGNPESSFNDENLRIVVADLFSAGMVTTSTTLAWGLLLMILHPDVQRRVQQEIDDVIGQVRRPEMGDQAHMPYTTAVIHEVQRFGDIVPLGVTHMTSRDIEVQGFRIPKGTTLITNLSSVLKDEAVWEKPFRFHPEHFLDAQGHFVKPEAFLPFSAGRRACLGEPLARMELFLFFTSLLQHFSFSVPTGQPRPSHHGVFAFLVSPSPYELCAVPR
The target of another data set is CYP3A4 (Homo sapiens, UniProt P08684). The data set is described as follows: in vitro. As to conditions: human microsomes, probe marker substrate cocktail, 1′-hydroxylation (CYP3A4).
Sequence of CYP3A4 (P08684 whole entry): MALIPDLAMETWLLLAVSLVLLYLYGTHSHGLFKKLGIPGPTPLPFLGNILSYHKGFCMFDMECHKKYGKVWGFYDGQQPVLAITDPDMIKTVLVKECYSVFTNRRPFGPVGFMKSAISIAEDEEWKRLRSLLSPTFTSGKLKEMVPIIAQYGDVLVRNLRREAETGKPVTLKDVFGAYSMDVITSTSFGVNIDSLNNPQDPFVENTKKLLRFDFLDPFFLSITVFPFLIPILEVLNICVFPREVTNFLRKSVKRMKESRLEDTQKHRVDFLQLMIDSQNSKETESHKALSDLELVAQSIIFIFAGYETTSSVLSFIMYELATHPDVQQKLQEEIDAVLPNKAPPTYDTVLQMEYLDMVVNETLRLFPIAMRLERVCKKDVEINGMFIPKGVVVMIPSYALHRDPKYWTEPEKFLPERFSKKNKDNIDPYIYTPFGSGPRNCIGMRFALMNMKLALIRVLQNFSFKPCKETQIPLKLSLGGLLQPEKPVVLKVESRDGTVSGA
For data set [8], the target named is T2, CYP2C9. Briefly: biochemical.
Data set [9] concerns the target T3, CYP2D6. The data set is described as follows: biochemical.
The nature of data set [10]: Cynomolgus monkey plasma pharmacokinetics. The following applies: male, iv, 4.37 mg/kg; for AUC(0-inf): AUC0-inf; for AUC(0-t): AUC0-last; for clearance: Cl; for Vd: Vdss.
Data set [11] deals with mouse-adapted EV71 strain MP10. The data set is described as follows: In vivo anti-EV71 efficacy in 10-day-old ICR mice. The following applies: lethal dose EV71 MP10.
The test system of the next data set is EV71 FY-23. The data set is described as follows: In vivo anti-EV71 efficacy in adult rhesus monkeys. The following applies: 50 mg/kg i.v. four times, between days 6 and 9 post-infection.
[12] abbreviates: Enterovirus A, EV71 isolate Fuyang573, RD cells.
Where [13] appears, read: mean of 3 monkeys, 4.37 mg/kg i.v. bolus.
[14] abbreviates: monkey P101, 4.37 mg/kg i.v. bolus.
Setting [15] is: monkey P102, 4.37 mg/kg i.v. bolus.
[16] abbreviates: monkey P103, 4.37 mg/kg i.v. bolus.

Consider `O=S(=O)(O)c1cc(N=C=S)ccc1/C=C/c1ccc(N=C=S)cc1S(=O)(=O)O` [DIDS, 4,4′-diisothiocyanatostilbene-2,2′-disulfonic acid disodium salt], for which the IC90 in the data set with EV71 [1] (Enterovirus A, EV71, RD) was 10.3 µM.
Regarding `O=C(Nc1cccc(C(=O)Nc2ccc(S(=O)(=O)O)c3cc(S(=O)(=O)O)cc(S(=O)(=O)O)c23)c1)Nc1cccc(C(=O)Nc2ccc(S(=O)(=O)O)c3cc(S(=O)(=O)O)cc(S(=O)(=O)O)c23)c1` [NF 023, 8,8′-[carbonylbis(imino-3,1-phenylenecarbonylimino)]bis-1,3,5-naphthalene-trisulphonic acid, hexasodium salt], the IC90 in the data set with EV71 [1] (setting [12]) was found to be 8.9 µM.
Still for that read-out and setting: then `O=C(Nc1cc(C(=O)Nc2ccc(S(=O)(=O)O)cc2S(=O)(=O)O)cc(C(=O)Nc2ccc(S(=O)(=O)O)cc2S(=O)(=O)O)c1)Nc1cc(C(=O)Nc2ccc(S(=O)(=O)O)cc2S(=O)(=O)O)cc(C(=O)Nc2ccc(S(=O)(=O)O)cc2S(=O)(=O)O)c1` [NF 449, 4,4′,4″,4″′-[carbonylbis(imino-5,1,3-benzenetriyl-bis(carbonylimino))]tetrakis-1,3-benzenedisulfonic acid, octasodium salt], with 0.9 µM; and `Cc1nc(/N=N/c2ccc(S(=O)(=O)O)cc2S(=O)(=O)O)c(COP(=O)(O)O)c(C=O)c1O` [PPADS, pyridoxal phosphate-6-azo (benzene-2,4-disulfonic acid) tetrasodium salt hydrate], with 7 µM.
Turning to `Cc1nc(/N=N/c2cc(S(=O)(=O)O)ccc2S(=O)(=O)O)c(COP(=O)(O)O)c(C=O)c1O` [iso-PPADS, pyridoxalphosphate-6-azophenyl-2′,5′-disulfonic acid tetrasodium salt], in the data set on EV71 [1] (setting [12]), the 90% effect concentration (IC90) stood at 6.4 µM.
Take `Cc1ccc(C(=O)Nc2ccc(S(=O)(=O)O)c3cc(S(=O)(=O)O)cc(S(=O)(=O)O)c23)cc1NC(=O)c1cccc(NC(=O)Nc2cccc(C(=O)Nc3cc(C(=O)Nc4ccc(S(=O)(=O)O)c5cc(S(=O)(=O)O)cc(S(=O)(=O)O)c45)ccc3C)c2)c1` [suramin, Suramin sodium salt]: the “reduction of coxsackievirus A16 replication” value in the data set on coxsackievirus A16 was 10^6 TCID50/mL. In addition, the “inhibition of poliovirus-1 (Sabin)” value in the data set on poliovirus-1 (Sabin) was “not inhibited”. For the same molecule, the “effect on viral replication” value in the data set on EV71 [2] (added after adsorption) is listed as “no effect”. In the data set with EV71 [2] (added at the virus-cell adsorption stage), the “decrease of viral replication” value is listed as over 1 log10. Besides, the concentration for an effect of 90% (IC90) in the data set on EV71 [3] stood at 6.17 µM. For the same molecule, the “STD NMR signals with EV71 particles” value with EV71 particles is “strong STD NMR signals”. In addition, the half-life result in data set [4] was “long”; in data set [10] (T1/2, mean of 3 monkeys, 4.37 mg/kg i.v. bolus), 4.33 days; in [10] (T1/2, monkey P101, 4.37 mg/kg i.v. bolus), 2.88 days; in data set [10] (T1/2, monkey P102, 4.37 mg/kg i.v. bolus), 4.69 days; in [10] (T1/2, monkey P103, 4.37 mg/kg i.v. bolus), 5.43 days. The serum protein binding result in data set [5] is “high levels”. Besides, the inhibition at 10 min, 10 µM is 40% on CYP1A2, 0% on CYP2C9 [6], 7% on CYP2D6 [7] and 5% at CYP3A4. The inhibition at 10 min, 30 µM on CYP1A2 worked out at 70%; on CYP2C9 [6], 8%; on CYP2D6 [7], 40%; against CYP3A4 it was 16%. Further, the inhibition at 10 min, 100 µM was determined as 89% at CYP1A2, 32% against CYP2C9 [6], 49% on CYP2D6 [7] and 34% on CYP3A4. Besides, the IC50 at CYP2C9 [8] was over 100 µM; against CYP2D6 [9] it was > 100 µM (2×) and 45.5 µM. Moreover, the area under the curve AUC(0-inf) in data set [10] (setting [13]) came out at 2330 µg·h/mL; in data set [10] (setting [14]), 1960 µg·h/mL; in data set [10] (setting [15]) it was 2400 µg·h/mL; in data set [10] (setting [16]) it was 2620 µg·h/mL. In addition, the exposure AUC(0-t) turned out to be 1800 µg·h/mL in data set [10] (setting [13]), 1660 µg·h/mL in data set [10] (setting [14]), 1810 µg·h/mL in data set [10] (setting [15]) and 1930 µg·h/mL in data set [10] (setting [16]). In addition, the C0 in data set [10] (C0, mean of 3 monkeys, 4.37 mg/kg i.v. bolus) stood at 128 µg/mL; in [10] (C0, monkey P101, 4.37 mg/kg i.v. bolus), 143 µg/mL; in data set [10] (C0, monkey P102, 4.37 mg/kg i.v. bolus), 96.3 µg/mL; in data set [10] (C0, monkey P103, 4.37 mg/kg i.v. bolus), 146 µg/mL. Also, the clearance in data set [10] (setting [13]) amounted to 1.9 mL/h/kg; in [10] (setting [14]), 2.23 mL/h/kg; in data set [10] (setting [15]), 1.82 mL/h/kg; in data set [10] (setting [16]), 1.67 mL/h/kg. The Cmax in data set [10] (setting [13]) stood at 142 µg/mL; in data set [10] (setting [14]) it was 169 µg/mL; in [10] (setting [15]), 117 µg/mL; in data set [10] (setting [16]), 141 µg/mL. The Tmax in [10] (setting [13]) was determined as 3.6 min; in [10] (setting [14]), 4.8 min; in data set [10] (setting [15]) it was 4.8 min; in data set [10] (setting [16]), 1.8 min. Also, the volume of distribution (Vd) was found to be 0.199 L/kg in data set [10] (setting [13]), 0.176 L/kg in data set [10] (setting [14]), 0.212 L/kg in data set [10] (setting [15]) and 0.21 L/kg in data set [10] (setting [16]). This molecule came in with a survival rate in data set [11] (50 mg/kg i.p. twice daily for 7 days) of 30%. The same molecule registered a decrease of mortality in [11] (mice) of 30%. Besides, in the data set on EV71 FY-23, the “viral genomic RNA in serum” value is < 20 copies of viral genomic RNA/mL.
With Sucralfate sodium, in the data set with EV71 [1] (EV71 isolate Fuyang573, RD cells), the concentration for an effect of 90% (IC90) turned out to be 3.3 µM.
heparin sodium salt: the “IC90, EV71 replication” value in the data set with EV71 [1] is given as 24.3 µg/mL.
